Data set [1] deals with Liver microsomes. Description: Metabolic stability in human liver microsomes assessed as clearance. Format: ADME, Microsome. On the technique in general: Liver microsomes are vesicles of endoplasmic reticulum, rich in cytochrome P450 enzymes.
The target in data set [2] is Mitogen-activated protein kinase 8 (Homo sapiens, UniProt P45983). The data set can be described thus: Inhibition of JNK1.
Data set [3] concerns the target c-Jun N-terminal kinase, JNK (Homo sapiens, UniProt P45983+P53779+P45984). Description: Inhibition of TNF-alpha-induced phosphorylation of […] in human HepG2 cells. Format: cell-based.
For data set [4], the target named is Voltage-gated inwardly rectifying potassium channel KCNH2 (Homo sapiens, UniProt Q12809). Description: Binding affinity to human ERG.
Data set [5] deals with Mitogen-activated protein kinase 13 (Homo sapiens, UniProt O15264). Description: Inhibition of SPAK4.
The target in data set [6] is Ribosomal protein S6 kinase beta-1 (Homo sapiens, UniProt P23443). Description: Inhibition of P70s6K.
For data set [7], the target named is Glycogen synthase kinase-3 beta (Homo sapiens, UniProt P49841). Description: Inhibition of GSK3-beta.
In data set [8] the target is Mitogen-activated protein kinase 11 (Homo sapiens) (UniProt Q15759). The data set can be described thus: Inhibition of SAPK2b.
The target in data set [9] is Dual specificity mitogen-activated protein kinase kinase 6 (Homo sapiens, UniProt P52564). Description: Inhibition of MKK6.
In data set [10] the target is Mitogen-activated protein kinase 9 (Homo sapiens, UniProt P45984). Description: Inhibition of to JNK2.
Data set [11] addresses Insulin receptor (Homo sapiens, UniProt P06213). Description: Inhibition of IR.
In data set [12] the target is Mitogen-activated protein kinase 12 (Homo sapiens, UniProt P53778). Description: Inhibition of SAPK3.
Data set [13] concerns the target Dual specificity mitogen-activated protein kinase kinase 4 (Homo sapiens, UniProt P45985). The data set can be described thus: Inhibition of MKK4.
For data set [14], the target named is Protein kinase C theta type (Homo sapiens, UniProt Q04759). Description: Inhibition of PKCtheta.
Data set [15] concerns the target MAP kinase-activated protein kinase 2 (Homo sapiens, UniProt P49137). Description: Inhibition of MAPKAP-K2.
Data set [16] deals with Mitogen-activated protein kinase 10 (Homo sapiens, UniProt P53779). Description: Inhibition of JNK3.
The target in data set [17] is Dual specificity mitogen-activated protein kinase kinase 7 (Homo sapiens, UniProt O14733). Description: Inhibition of MKK7beta.
The target of data set [18] is Inhibitor of nuclear factor kappa-B kinase subunit beta (Homo sapiens, UniProt O14920). The data set can be described thus: Inhibition of IKKb.
In data set [19] the target is Dual specificity mitogen-activated protein kinase kinase 1 (Homo sapiens, UniProt Q02750). The data set can be described thus: Inhibition of MEK1.
Data set [20] concerns the target 5'-AMP-activated protein kinase catalytic subunit alpha-2 (Homo sapiens, UniProt P54646). Description: Inhibition of AMPK.
In data set [21] the target is Mitogen-activated protein kinase 14 (Homo sapiens, UniProt Q16539). Description: Inhibition of SAPK2a.
Data set [22] deals with Cyclin-dependent kinase 2 (Homo sapiens, UniProt P24941). The data set can be described thus: Inhibition of CDK2/cyclinA.
Data set [23] is described as follows: Selectivity ratio of IC50 for p38MAPKgamma to IC50 for JNK1.
Data set [24] in a line: Selectivity ratio of IC50 for p38MAPKbeta to IC50 for JNK1.
Data set [25] can be described thus: Lipophilicity, log D of the compound. Format: physicochemical. The following applies: octanol/water.
A short description of data set [26]: Permeability from basolateral to apical side of human Caco-2 cells. Format: ADME, cell-based. The following applies: read-out: permeability. Background: Passage across Caco-2 layers is used to estimate intestinal permeability.
Data set [27] is described as follows: Permeability from apical to basolateral side of human Caco-2 cells. Format: ADME, cell-based. The conditions noted are these: read-out: permeability.
Data set [28] can be described thus: Metabolic stability in rat liver microsomes assessed as clearance. Format: ADME, Microsome.

pIC50, pKi: −log10 of the molar value.

Chain of Mitogen-activated protein kinase 8 (P45983 whole entry): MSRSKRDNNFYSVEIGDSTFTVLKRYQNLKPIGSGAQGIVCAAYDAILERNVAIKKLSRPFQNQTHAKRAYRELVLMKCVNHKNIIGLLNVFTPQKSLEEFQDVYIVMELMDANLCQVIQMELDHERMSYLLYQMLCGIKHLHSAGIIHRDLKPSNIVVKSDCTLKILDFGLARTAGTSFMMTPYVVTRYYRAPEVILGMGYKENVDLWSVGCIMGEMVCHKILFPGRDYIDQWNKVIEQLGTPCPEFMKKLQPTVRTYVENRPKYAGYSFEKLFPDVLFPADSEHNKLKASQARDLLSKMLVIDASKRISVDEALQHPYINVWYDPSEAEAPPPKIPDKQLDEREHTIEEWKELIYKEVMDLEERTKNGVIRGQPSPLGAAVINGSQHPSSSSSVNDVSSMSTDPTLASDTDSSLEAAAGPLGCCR
Chain of Dual specificity mitogen-activated protein kinase kinase 1 (Q02750 whole entry): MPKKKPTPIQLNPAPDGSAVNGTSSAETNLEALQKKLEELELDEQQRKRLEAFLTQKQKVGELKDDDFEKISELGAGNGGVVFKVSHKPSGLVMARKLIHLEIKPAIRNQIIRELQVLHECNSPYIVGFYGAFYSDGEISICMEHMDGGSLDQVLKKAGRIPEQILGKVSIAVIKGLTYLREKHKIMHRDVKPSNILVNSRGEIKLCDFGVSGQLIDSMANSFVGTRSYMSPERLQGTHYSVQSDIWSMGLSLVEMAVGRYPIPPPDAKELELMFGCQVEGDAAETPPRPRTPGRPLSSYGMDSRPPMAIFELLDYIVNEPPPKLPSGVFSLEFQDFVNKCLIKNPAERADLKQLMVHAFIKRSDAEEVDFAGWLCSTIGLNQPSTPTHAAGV
Chain of Glycogen synthase kinase-3 beta (P49841 whole entry): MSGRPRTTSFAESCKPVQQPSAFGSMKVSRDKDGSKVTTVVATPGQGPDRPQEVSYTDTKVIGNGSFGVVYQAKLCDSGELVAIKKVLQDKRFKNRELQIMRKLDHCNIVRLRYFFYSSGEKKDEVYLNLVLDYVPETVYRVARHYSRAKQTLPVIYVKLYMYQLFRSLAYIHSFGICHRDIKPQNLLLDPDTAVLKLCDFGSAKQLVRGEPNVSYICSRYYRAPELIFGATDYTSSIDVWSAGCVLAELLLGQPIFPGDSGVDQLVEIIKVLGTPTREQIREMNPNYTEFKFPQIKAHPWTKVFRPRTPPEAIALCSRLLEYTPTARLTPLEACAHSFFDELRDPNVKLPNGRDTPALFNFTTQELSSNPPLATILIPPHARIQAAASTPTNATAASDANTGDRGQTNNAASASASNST
Chain of Mitogen-activated protein kinase 10 (P53779 whole entry): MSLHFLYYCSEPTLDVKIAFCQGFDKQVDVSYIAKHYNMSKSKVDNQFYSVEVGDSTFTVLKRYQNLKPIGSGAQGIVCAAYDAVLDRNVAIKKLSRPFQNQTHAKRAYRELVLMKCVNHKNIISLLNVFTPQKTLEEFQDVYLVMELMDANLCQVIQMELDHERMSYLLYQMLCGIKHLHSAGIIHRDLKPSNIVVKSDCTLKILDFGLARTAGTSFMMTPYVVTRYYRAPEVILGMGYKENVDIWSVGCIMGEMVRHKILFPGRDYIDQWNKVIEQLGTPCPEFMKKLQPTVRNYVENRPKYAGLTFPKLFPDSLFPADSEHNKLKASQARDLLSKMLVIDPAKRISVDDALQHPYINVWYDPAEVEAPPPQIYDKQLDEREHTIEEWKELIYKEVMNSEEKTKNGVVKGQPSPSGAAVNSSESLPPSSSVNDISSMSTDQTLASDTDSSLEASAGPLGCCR
Chain of Dual specificity mitogen-activated protein kinase kinase 6 (P52564 whole entry): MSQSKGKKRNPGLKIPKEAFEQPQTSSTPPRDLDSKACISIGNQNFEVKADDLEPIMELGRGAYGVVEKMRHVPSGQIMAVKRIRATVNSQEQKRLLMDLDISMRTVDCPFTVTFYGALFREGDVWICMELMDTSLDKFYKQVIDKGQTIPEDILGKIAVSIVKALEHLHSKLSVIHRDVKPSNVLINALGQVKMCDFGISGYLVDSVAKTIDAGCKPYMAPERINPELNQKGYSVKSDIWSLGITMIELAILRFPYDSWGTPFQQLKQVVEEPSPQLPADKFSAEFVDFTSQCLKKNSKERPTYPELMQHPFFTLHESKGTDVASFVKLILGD
Chain of Mitogen-activated protein kinase 12 (P53778 whole entry): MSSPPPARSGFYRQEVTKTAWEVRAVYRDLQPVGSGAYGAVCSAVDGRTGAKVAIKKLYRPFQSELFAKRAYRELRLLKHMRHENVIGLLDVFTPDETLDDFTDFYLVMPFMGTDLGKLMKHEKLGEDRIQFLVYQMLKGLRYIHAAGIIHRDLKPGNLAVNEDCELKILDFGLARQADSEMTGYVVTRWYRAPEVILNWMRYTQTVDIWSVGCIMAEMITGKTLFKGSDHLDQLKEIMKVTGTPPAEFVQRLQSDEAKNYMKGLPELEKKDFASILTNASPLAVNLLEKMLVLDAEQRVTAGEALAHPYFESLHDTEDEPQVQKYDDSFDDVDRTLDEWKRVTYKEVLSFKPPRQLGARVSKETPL
Chain of Mitogen-activated protein kinase 11 (Homo sapiens) (Q15759 whole entry, looked up): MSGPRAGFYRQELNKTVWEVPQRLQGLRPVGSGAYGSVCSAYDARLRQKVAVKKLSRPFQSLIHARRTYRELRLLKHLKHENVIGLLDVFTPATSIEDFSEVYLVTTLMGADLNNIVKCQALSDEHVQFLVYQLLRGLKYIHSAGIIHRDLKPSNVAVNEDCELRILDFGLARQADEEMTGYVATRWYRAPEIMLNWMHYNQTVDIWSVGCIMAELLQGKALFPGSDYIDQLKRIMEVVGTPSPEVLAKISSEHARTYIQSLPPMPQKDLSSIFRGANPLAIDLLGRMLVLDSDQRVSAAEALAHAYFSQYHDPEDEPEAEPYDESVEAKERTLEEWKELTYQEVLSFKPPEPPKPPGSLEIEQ
Chain of Inhibitor of nuclear factor kappa-B kinase subunit beta (O14920 whole entry): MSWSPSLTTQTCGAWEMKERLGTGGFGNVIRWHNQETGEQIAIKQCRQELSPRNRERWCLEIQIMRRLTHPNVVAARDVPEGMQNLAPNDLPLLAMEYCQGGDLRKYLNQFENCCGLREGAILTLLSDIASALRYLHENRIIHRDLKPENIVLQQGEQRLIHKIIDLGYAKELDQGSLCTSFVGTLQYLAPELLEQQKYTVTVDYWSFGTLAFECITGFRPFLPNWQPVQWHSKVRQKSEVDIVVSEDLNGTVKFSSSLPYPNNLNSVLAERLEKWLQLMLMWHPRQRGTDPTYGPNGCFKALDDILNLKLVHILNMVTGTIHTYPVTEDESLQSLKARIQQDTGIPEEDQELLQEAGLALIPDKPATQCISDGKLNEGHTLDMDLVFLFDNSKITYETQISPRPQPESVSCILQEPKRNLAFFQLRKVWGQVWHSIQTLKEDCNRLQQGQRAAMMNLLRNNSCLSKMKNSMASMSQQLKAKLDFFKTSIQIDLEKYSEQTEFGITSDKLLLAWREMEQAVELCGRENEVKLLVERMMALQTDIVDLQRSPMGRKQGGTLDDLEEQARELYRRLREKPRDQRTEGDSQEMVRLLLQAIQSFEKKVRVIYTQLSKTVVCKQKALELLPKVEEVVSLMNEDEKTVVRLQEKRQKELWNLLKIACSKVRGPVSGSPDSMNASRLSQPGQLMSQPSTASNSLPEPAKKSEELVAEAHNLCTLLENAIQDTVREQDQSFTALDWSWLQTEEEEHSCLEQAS
Chain of Dual specificity mitogen-activated protein kinase kinase 7 (O14733 whole entry): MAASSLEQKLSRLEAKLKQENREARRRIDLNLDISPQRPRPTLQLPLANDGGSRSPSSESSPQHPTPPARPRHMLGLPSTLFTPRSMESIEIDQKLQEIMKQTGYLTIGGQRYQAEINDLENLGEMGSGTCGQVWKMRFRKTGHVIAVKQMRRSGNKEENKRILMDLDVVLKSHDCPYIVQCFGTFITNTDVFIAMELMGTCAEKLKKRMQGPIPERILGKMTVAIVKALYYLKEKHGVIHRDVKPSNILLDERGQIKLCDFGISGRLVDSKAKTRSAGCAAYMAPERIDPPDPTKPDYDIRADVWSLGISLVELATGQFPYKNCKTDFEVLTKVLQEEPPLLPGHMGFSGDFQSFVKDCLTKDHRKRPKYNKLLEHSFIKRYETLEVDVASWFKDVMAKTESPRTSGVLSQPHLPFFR
Chain of 5'-AMP-activated protein kinase catalytic subunit alpha-2 (P54646 whole entry): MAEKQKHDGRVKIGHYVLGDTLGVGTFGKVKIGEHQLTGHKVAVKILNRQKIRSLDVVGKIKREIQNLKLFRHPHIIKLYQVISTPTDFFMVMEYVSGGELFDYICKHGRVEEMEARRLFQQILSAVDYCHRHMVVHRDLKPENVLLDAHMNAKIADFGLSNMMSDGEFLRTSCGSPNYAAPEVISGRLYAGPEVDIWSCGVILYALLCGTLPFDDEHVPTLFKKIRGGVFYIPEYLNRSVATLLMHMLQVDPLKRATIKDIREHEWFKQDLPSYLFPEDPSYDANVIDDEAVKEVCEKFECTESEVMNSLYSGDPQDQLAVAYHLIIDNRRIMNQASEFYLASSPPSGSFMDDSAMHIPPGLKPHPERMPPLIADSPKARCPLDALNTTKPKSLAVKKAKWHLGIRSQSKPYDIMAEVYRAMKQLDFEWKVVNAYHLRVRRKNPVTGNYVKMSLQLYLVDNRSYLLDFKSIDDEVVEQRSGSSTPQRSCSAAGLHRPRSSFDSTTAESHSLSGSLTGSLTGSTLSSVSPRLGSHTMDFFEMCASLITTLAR
Chain of Mitogen-activated protein kinase 14 (Q16539 whole entry): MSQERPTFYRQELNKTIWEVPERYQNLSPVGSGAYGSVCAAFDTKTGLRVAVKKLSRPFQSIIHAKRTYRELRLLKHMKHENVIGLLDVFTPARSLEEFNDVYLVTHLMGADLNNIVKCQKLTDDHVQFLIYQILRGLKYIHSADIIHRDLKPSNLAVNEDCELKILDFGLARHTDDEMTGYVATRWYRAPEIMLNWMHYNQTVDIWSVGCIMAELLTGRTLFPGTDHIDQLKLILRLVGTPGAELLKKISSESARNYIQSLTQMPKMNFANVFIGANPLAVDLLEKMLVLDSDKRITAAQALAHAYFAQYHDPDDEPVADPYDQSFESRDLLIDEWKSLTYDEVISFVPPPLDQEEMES

What is called microsomal CLint is the rate of metabolic loss divided by the concentration. The pKi is −log10 of the Ki, conventionally taken in molar units. The term IC50 denotes the midpoint of a concentration-inhibition curve. The low end stands for higher potency, the high end for lower potency. As for `Clc1ccc(-c2n[nH]cc2-c2ccnc(NC3CCCCC3)n2)cc1`, the microsomal CLint in data set [1] worked out at 156 µL/min/mg. Moreover, in [2], the pKi was 7.57. In [3], this compound registered a concentration for half-maximal inhibition (IC50) of 1100 nM.

With `CC(C)Nc1nccc(-c2cn[nH]c2)n1`, the microsomal CLint in [1] was 21 µL/min/mg. This compound also had a pKi in [2] of 5.56.

For the compound `CN1CCC(Nc2nccc(-c3c[nH]nc3-c3ccc(Cl)cc3)n2)CC1`, the microsomal CLint in [1] worked out at 14 µL/min/mg. Further, the pKi in [2] is 5.80; in [4], 5.99.

In turn, `Cc1ccnc(S)n1` showed a negative logarithm of the Ki (pKi) in data set [2] of 5.69.

As a reminder, the pIC50 is the IC50 on a negative log10 scale, so that one unit is a factor of ten. Read a low pIC50 as a large IC50. Turning to `O[C@H]1CC[C@H](c2[nH]ncc2-c2ccnc(NC3CCCC3)n2)CC1`, the negative-log IC50 (pIC50) is 5.92 in data set [5]; less than 4.52 in data set [6]; 5.72 in data set [7]; 4.82 in data set [8]; 4.82 in [9]; less than 4.52 in data set [11]. The pIC50 in [12] was 5.21; in data set [13], 6.04; in data set [14] it was less than 4.52; in data set [15], less than 4.52; in data set [17] it was 6.07; in data set [18], 4.89. Moreover, the pIC50 in data set [19] was less than 4.52; in [20], less than 4.52; in data set [21], less than 4.52; in data set [22] it was 6.23. For the same compound, the pKi in [10] is 7.77; in data set [16], 7.80; in data set [2] it was 7.92. For the same compound, in [1], the microsomal CLint was less than 15 µL/min/mg.

In the case of `CC(C)Nc1nccc(-c2cn[nH]c2C2CCCCO2)n1` (configuration not stated), the intrinsic clearance (microsomal CLint) in [1] came out at 21 µL/min/mg. In [2], this compound showed a negative logarithm of the Ki (pKi) of 6.42. Besides, the IC50 in data set [3] turned out to be 3500 nM.

Turning to `CC(C)Nc1nccc(-c2c[nH]nc2-c2ccc(Cl)cc2)n1`, in [1], the intrinsic clearance (microsomal CLint) was 106 µL/min/mg. The compound also showed a negative-log Ki (pKi) in data set [2] of 7.32. Further, the half-inhibitory concentration (IC50) in data set [3] was 920 nM.

Take `O[C@H]1CC[C@H](c2n[nH]cc2-c2ccnc(NC3CCCC3)n2)CC1`: the Activity in data set [23] and in data set [24] was 100 each time. The 50% inhibitory concentration (IC50) in [3] turned out to be 98 nM.

`Clc1ccc(-c2n[nH]cc2-c2ccnc(NC3CC3)n2)cc1`: the microsomal CLint in data set [1] stood at 96 µL/min/mg. In data set [2], this compound showed a pKi of 6.82. This compound came in with a half-maximal inhibitory concentration (IC50) in data set [3] of 840 nM.

As to `OC1CCCC(c2n[nH]cc2-c2ccnc(NC3CCCC3)n2)C1` (configuration not stated), the microsomal CLint in data set [1] was found to be 15 µL/min/mg. The compound further gave a pKi in data set [2] of 7.44. In data set [3], this compound returned a 50% inhibitory concentration (IC50) of 209 nM.

The term logD denotes lipophilicity at a set pH, counting ionised and neutral species. Low values mean lower lipophilicity, high ones higher lipophilicity. For the compound `Clc1ccc(-c2n[nH]cc2-c2ccnc(NC3CCCC3)n2)cc1`, in [25], the logD worked out at 4.42. Further, in data set [1], the microsomal CLint was 116 µL/min/mg. This compound had a negative-log Ki (pKi) in data set [2] of 7.59. Besides, in [3], the IC50 turned out to be 460 nM.

With `CC(C)Nc1nccc(-c2c[nH]nc2C2CCOCC2)n1`, the intrinsic metabolic clearance (microsomal CLint) in data set [1] turned out to be 18 µL/min/mg. The compound further showed a pKi in data set [2] of 6.77. The same compound came in with an IC50 in data set [3] of 814 nM.

Consider `c1cc(-c2cn[nH]c2C2CCCOC2)nc(NC2CCCC2)n1` (configuration not stated), for which the microsomal CLint in data set [1] stood at 89 µL/min/mg. This compound also had a negative logarithm of the Ki (pKi) in [2] of 7.92. In data set [3], the IC50 stood at 245 nM.

Take `CC(C)Nc1nccc(-c2cn[nH]c2C2CCCNC2)n1` (configuration not stated): in data set [1], the intrinsic clearance (microsomal CLint) was 14 µL/min/mg. Further, the pKi in [2] was 6.28.

Turning to `CS(=O)(=O)N[C@H]1CC[C@H](c2n[nH]cc2-c2ccnc(NC3CCCC3)n2)CC1`, the intrinsic metabolic clearance (microsomal CLint) in [1] is 11 µL/min/mg. In [2], this compound had a negative logarithm of the Ki (pKi) of 8.05. Further, in [3], the IC50 turned out to be 114 nM.

Consider `C[C@H](CC(=O)O)Nc1nccc(-c2c[nH]nc2-c2ccc(Cl)cc2)n1`, for which the Papp B→A in data set [26] was 13.2 ×10⁻⁶ cm/s. For the same compound, the microsomal CLint in data set [1] is less than 6 µL/min/mg. Also, in data set [2], the pKi was 6.50. Further, the Papp A→B in [27] was 0.3 ×10⁻⁶ cm/s.

On to `CC(C)Nc1nccc(-c2c[nH]nc2C2CCCOC2)n1` (configuration not stated), for which the intrinsic metabolic clearance (microsomal CLint) in data set [28] was found to be 18 µL/min/mg; in data set [1] it was 34 µL/min/mg. The compound also gave a pKi in data set [2] of 7.37. In data set [3], this compound gave an IC50 of 357 nM.

Turning to `Cc1ccc(-c2n[nH]cc2-c2ccnc(NC3CCN(C)CC3)n2)cn1`, in [1], the intrinsic metabolic clearance (microsomal CLint) was 61 µL/min/mg. In data set [2], this compound showed a pKi of 6.79. In data set [3], the 50% inhibitory concentration (IC50) worked out at 6020 nM.

Regarding `CC(C)Nc1nccc(-c2cn[nH]c2C2CCN(S(C)(=O)=O)CC2)n1`, the figures for the microsomal CLint in data set [28] and in data set [1] were 52 µL/min/mg and 12 µL/min/mg, respectively. In data set [2], this compound showed a pKi of 7.00. Besides, the concentration for half-maximal inhibition (IC50) in data set [3] is given as 221 nM.

Regarding `CC(=O)N[C@H]1CC[C@H](c2n[nH]cc2-c2ccnc(NC3CCCC3)n2)CC1`, in data set [1], the microsomal CLint is less than 8 µL/min/mg. In addition, the negative-log Ki (pKi) in data set [2] was 7.55. In addition, the IC50 in data set [3] stood at 299 nM.
